Experimental data: publication PMC10977697 (PLOS ONE, 2024)
Where no end group is shown, it is not given here.

Assays:
Notch2NRR = test: Spot phage ELISA, Notch2NRR; format: binding, human; conditions: for S/N: spot phage ELISA on Notch2NRR, signal-to-noise ratio of phage-displayed DCP clone; for ELISA: spot phage ELISA signal of phage-displayed DCP clone on Notch2NRR
PCSK9ΔCRD (PCSK9dCRD) = format: binding, human; conditions: for S/N: ratio of signal for target protein over BSA background; for ELISA: spot phage ELISA signal, DCP displayed on M13 p8
CD28-Fc = test: Spot phage ELISA, CD28-Fc; format: binding; conditions: for ELISA: spot phage ELISA signal of phage-displayed DCP clone on CD28-Fc; for S/N: spot phage ELISA signal-to-noise on CD28-Fc
Fz7CRD-Fc = format: binding

| Sequence | S/N (Notch2NRR) | ELISA (Notch2NRR) | S/N (PCSK9ΔCRD (PCSK9dCRD)) | ELISA (PCSK9ΔCRD (PCSK9dCRD)) | ELISA (CD28-Fc) | S/N (CD28-Fc) | other results |
| --- | --- | --- | --- | --- | --- | --- | --- |
| AFDCLGQCGRCDFHKLQCIWSNRNYPYCNSSCTR (disulfide (positions not given here)) [AVR9 3] | 47.3 | 3.31 | – | – | – | – | – |
| AFDCLGQCGRCDFHKLQCVFRSWQHYMYCNSSCTR (also: bicyclic or more (positions not given here)) [PCSK9dCRD AVR9 39] | – | – | 9.1 | 2.46 | – | – | – |
| AFDCLGQCGRCDFHKLQCVGKFRSFQDYQYCNSSCTR (also: bicyclic or more (positions not given here)) [PCSK9dCRD AVR9 18] | – | – | 28.6 | 2.52 | – | – | – |
| AFDCLGQCGRCDFHKLQCVHSNRNSFYCNSSCTR (disulfide (positions not given here)) [AVR9 7] | 43.6 | 3.23 | – | – | – | – | – |
| AFDCLGQCGRCDFHKLQCVNIEYYRDWDHYQYCNSSCTR (also: bicyclic or more (positions not given here)) [PCSK9dCRD AVR9 82] | – | – | 27.6 | 2.13 | – | – | – |
| AFDCLGQCGRCDFHKLQCVPYSWTYKQYCNSSCTR (disulfide (positions not given here)) [AVR9 9] | 35.7 | 2.57 | – | – | – | – | – |
| AFDCLGQCGRCDFHKLQCVSSNRNTPYCNSSCTR (disulfide (positions not given here)) [AVR9 5] | 45.8 | 3.31 | – | – | – | – | – |
| AFDCLGQCGRCDFHKLQCVVGWASMRNYCNSSCTR (disulfide (positions not given here)) [AVR9 8] | 42.0 | 3.14 | – | – | – | – | – |
| AFDCLGQCGRCDFHKLQCVWGNRNSSYCNSSCTR (disulfide (positions not given here)) [AVR9 6] | 35.2 | 3.28 | – | – | – | – | – |
| AFDCLGQCGRCDFHKLQCVWQTWQHYQYCNSSCTR (also: bicyclic or more (positions not given here)) [PCSK9dCRD AVR9 69] | – | – | 23.5 | 2.51 | – | – | – |
| AFDCLGQCGRCDFHKLQCVWQTWSAYLYCNSSCTR (also: bicyclic or more (positions not given here)) [PCSK9dCRD AVR9 80] | – | – | 2.9 | 2.10 | – | – | – |
| AFDCLGQCGRCDFHKLQCVWSNRHSPYCNSSCTR (disulfide (positions not given here)) [AVR9 4] | 39.3 | 3.31 | – | – | – | – | – |
| AFDCLGQCGRCDFHKLQCVWSNRNSLYCNSSCTR (disulfide (positions not given here)) [AVR9 1] | 2.0 | 3.42 | – | – | – | – | – |
| AFDCLGQCGRCDFHKLQCVWSNRNSPYCNSSCTR (disulfide (positions not given here)) [AVR9 2] | 44.7 | 3.32 | – | – | – | – | – |
| AFDCLGQCGRCDFHKLQCVWTSWGDYIKYGAYCNSSCTR (also: bicyclic or more (positions not given here)) [PCSK9dCRD AVR9 94] | – | – | 10.9 | 2.09 | – | – | – |
| AFDCLGQCGRCDFHKLQCVYESYAHYQYCNSSCTR (also: bicyclic or more (positions not given here)) [PCSK9dCRD AVR9 54] | – | – | 23.7 | 1.59 | – | – | – |
| AFDCLGQCGRCDFHKLQCVYKDWGHYLYCNSSCTR (also: bicyclic or more (positions not given here)) [PCSK9dCRD AVR9 34] | – | – | 24.0 | 1.80 | – | – | – |
| AFDCLGQCGRCDFHKLQCVYKTWQDYQYCNSSCTR (also: bicyclic or more (positions not given here)) [PCSK9dCRD AVR9 53] | – | – | 36.1 | 2.49 | – | – | – |
| AFDCLGQCGRCDFHKLQCVYQDWAHYVYCNSSCTR (also: bicyclic or more (positions not given here)) [PCSK9dCRD AVR9 44] | – | – | 27.7 | 2.19 | – | – | – |
| AFDCLGQCGRCDFHKLQCVYQSWDHYQYCNSSCTR (also: bicyclic or more (positions not given here)) [PCSK9dCRD AVR9 14] | – | – | 30.5 | 2.41 | – | – | – |
| AFDCLGQCGRCDFHKLQCVYRSWAHFQYCNSSCTR (also: bicyclic or more (positions not given here)) [PCSK9dCRD AVR9 11] | – | – | 18.5 | 2.52 | – | – | – |
| AFDCLGQCGRCDFHKLQCVYSSWAHYQYCNSSCTR (also: bicyclic or more (positions not given here)) [PCSK9dCRD AVR9 57] | – | – | 33.9 | 2.57 | – | – | – |
| AFDCLGQCGRCDFHKLQCVYTSWESYQYCNSSCTR (also: bicyclic or more (positions not given here)) [PCSK9dCRD AVR9 16] | – | – | 19.6 | 1.80 | – | – | – |
| AFDCLGQCGRCDFHKLQCVYTSWQHYQYCNSSCTR (also: bicyclic or more (positions not given here)) [PCSK9dCRD AVR9 58] | – | – | 35.3 | 2.67 | – | – | – |
| GCDEYWYECKQDSDCLAGCVCLIWGHCG (disulfide (positions not given here)) [CD28-Fc EET I-II 7] | – | – | – | – | 1.32 | 20.3 | – |

| Sequence | S/N (Notch2NRR) | ELISA (Notch2NRR) | S/N (PCSK9ΔCRD (PCSK9dCRD)) | ELISA (PCSK9ΔCRD (PCSK9dCRD)) | ELISA (CD28-Fc) | S/N (CD28-Fc) | other results |
| --- | --- | --- | --- | --- | --- | --- | --- |
| GCFENWATCKQDSDCLAGCVCKIWKRCG (disulfide (positions not given here)) [CD28-Fc EET I-II 5] | – | – | – | – | 1.34 | 19.6 | – |
| GCFWKRVHLCKQDSDCLAGCVCGWEASCG (disulfide (positions not given here)) [CD28-Fc EET I-II 15] | – | – | – | – | 1.64 | 31.6 | – |
| GCHYNWDQCKQDSDCLAGCVCLIWYRCD (disulfide (positions not given here)) [CD28-Fc EET I-II 12] | – | – | – | – | 1.06 | 20.1 | – |
| GCIWGWAACKQDSDCLAGCVCQIWGRCG (disulfide (positions not given here)) [CD28-Fc EET I-II 3] | – | – | – | – | 1.58 | 10.7 | – |
| GCKLMRQRCKQDSDCLAGCVCTQQWWCG (disulfide (positions not given here)) [N2N-EET-94] | 36.3 | 3.52 | – | – | – | – | – |
| GCMEHWEYCKQDSDCLAGCVCVIWGRCG (disulfide (positions not given here)) [CD28-Fc EET I-II 13] | – | – | – | – | 1.52 | 27.2 | – |
| GCMMYWDECKQDSDCLAGCVCLIWNRCG (disulfide (positions not given here)) [CD28-Fc EET I-II 4] | – | – | – | – | 1.85 | 34.2 | – |
| GCMWDWDACKQDSDCLAGCVCSIWGRCG (disulfide (positions not given here)) [CD28-Fc EET I-II 2] | – | – | – | – | 1.29 | 10.9 | – |
| GCMYHWEACKQDSDCLAGCICHIWIPCG (disulfide (positions not given here)) [CD28-Fc EET I-II 8] | – | – | – | – | 1.07 | 16.4 | – |
| GCNGQRRPWGRWCKQDSDCLAGCVCGPNGFCG (disulfide (positions not given here)) [N2N-EET-33-P1] | 11.9 | 2.39 | – | – | – | – | – |
| GCTLMRTRCKQDSDCLAGCVCEHIYWCG (disulfide (positions not given here)) [N2N-EET-n19] | 12.8 | 3.16 | – | – | – | – | – |
| GCTQDWKTCKQDSDCLAGCVCVIWGRCG (disulfide (positions not given here)) [CD28-Fc EET I-II 6] | – | – | – | – | 1.44 | 21.2 | – |
| GCVWNWVECKQDSDCLAGCVCYIWGRCG (disulfide (positions not given here)) [CD28-Fc EET I-II 1] | – | – | – | – | 1.59 | 15.4 | – |
| GCWEKRKMCKQDSDCLAGCVCGWEISCG (disulfide (positions not given here)) [CD28-Fc EET I-II 14] | – | – | – | – | 1.35 | 22.9 | – |
| GCYLKRRHCKQDSDCLAGCVCGWEHTCG (disulfide (positions not given here)) [CD28-Fc EET I-II 9] | – | – | – | – | 1.52 | 23.4 | – |
| GCYQKRVQCKQDSDCLAGCVCGWEAQCG (disulfide (positions not given here)) [CD28-Fc EET I-II 10] | – | – | – | – | 1.41 | 15.0 | – |
| GCYTFWHKCKQDSDCLAGCVCLIWGRCG (disulfide (positions not given here)) [CD28-Fc EET I-II 11] | – | – | – | – | 1.50 | 19.0 | – |
| GPTQSHYGQCGGAGYWGRWICSGTTCQPLPQSKSQCLPGAS (disulfide (positions not given here)) [CBD 1] | 38.2 | 3.79 | – | – | – | – | – |
| GPTQSHYGQCGGEGYWGRWICSGTTCQPYNTHFSQCLPGAS (disulfide (positions not given here)) [CBD 2] | 28.5 | 3.05 | – | – | – | – | – |
| GPTQSHYGQCGGFGYWGMRHCSGTTCQWQHLPSQ CLPGAS (disulfide) [CBD 3] | 36.6 | 3.00 | – | – | – | – | – |
| GPTQSHYGQCGGQGYWGMRHCSGTTCQWGAKGPSQCLPGAS (disulfide (positions not given here)) [CBD 4] | 33.1 | 3.68 | – | – | – | – | – |
| GPTQSHYGQCGGTGYWGMRNCSGTTCQRFAPQNSQCLPGAS (disulfide (positions not given here)) [CBD 5] | 47.2 | 3.59 | – | – | – | – | – |
| GPTQSVGGNCGGIGYSGPTVCASGTTCQVLSPNFSICLPGAS (also: bicyclic or more (positions not given here)) [PCSK9dCRD CBD 49] | – | – | 37.1 | 2.38 | – | – | – |
| GPTQSVGGVCGGIGYSGPTVCASGTTCQVLSPKTSICLPGAS (also: bicyclic or more (positions not given here)) [PCSK9dCRD CBD 40] | – | – | 27.5 | 2.39 | – | – | – |
| GPTQSWFGQCGGIGYSGPTVCASGTTCQVLVPDMSFCLPGAS (also: bicyclic or more (positions not given here)) [Fz7CRD-Fc CBD 87] | – | – | – | – | – | – | S/N (Fz7CRD-Fc; ratio of signal for target protein over BSA background): 32.0; ELISA (Fz7CRD-Fc; spot phage ELISA signal, DCP displayed on M13 p8): 2.66 |
